Results published in patent publication US9505749B2, “Quinazolinone compounds and derivatives thereof” (AMGEN INC., priority 2012, dated 2016).
pEC50, pIC50: −log10 of the molar value.

Key:
[1] = target: 6×HIS-tankyrase1 (1091-1325) (Homo sapiens (Human), UniProt O95271); experiment: Tankyrase 1 biochemical assay (AlphaLisa, PARsylation); details: 400 nM NAD, 60 minutes at RT; read-out: TNKS1 IC50
[2] = test system: Axin2 accumulation in SW480 cells; experiment: Axin2 384 immunofluorescence assay; assay type: cell-based; details: Homo sapiens; SW480 cells, 24 hours; read-out: Axin2 384 IF EC50
[3] = test system: total β-catenin in SW480 colorectal cells; experiment: Total β-catenin MSD 96-well plate assay for SW480 cells; details: Homo sapiens, SW480, read-out: SW480-Total beta-catenin (TBC) IC50 IP
PARP2 = PARP2 (Homo sapiens (Human), UniProt Q9UGN5); experiment: PARP2 biochemical assay (BPS kit)
Sequence of PARP2 (Q9UGN5 whole entry): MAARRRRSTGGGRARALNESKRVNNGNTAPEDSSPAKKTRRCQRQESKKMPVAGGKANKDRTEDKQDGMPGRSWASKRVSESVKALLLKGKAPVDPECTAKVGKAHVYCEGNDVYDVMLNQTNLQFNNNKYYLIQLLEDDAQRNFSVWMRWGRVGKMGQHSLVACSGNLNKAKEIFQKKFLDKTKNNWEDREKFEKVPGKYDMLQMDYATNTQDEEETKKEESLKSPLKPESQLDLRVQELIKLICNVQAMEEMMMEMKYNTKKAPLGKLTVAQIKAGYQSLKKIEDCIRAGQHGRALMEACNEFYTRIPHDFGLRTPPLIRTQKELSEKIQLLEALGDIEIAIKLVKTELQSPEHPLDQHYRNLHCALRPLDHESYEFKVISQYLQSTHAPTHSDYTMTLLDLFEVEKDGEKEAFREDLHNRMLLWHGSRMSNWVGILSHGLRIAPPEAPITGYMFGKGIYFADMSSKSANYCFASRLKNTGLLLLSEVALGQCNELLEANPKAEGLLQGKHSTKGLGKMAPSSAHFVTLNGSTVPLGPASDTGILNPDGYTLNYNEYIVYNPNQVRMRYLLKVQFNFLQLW

PARP1 = PARP1 (Homo sapiens (Human), UniProt P09874); experiment: PARP1 biochemical assay (Trevigen kit)
Sequence of PARP1 (P09874 whole entry): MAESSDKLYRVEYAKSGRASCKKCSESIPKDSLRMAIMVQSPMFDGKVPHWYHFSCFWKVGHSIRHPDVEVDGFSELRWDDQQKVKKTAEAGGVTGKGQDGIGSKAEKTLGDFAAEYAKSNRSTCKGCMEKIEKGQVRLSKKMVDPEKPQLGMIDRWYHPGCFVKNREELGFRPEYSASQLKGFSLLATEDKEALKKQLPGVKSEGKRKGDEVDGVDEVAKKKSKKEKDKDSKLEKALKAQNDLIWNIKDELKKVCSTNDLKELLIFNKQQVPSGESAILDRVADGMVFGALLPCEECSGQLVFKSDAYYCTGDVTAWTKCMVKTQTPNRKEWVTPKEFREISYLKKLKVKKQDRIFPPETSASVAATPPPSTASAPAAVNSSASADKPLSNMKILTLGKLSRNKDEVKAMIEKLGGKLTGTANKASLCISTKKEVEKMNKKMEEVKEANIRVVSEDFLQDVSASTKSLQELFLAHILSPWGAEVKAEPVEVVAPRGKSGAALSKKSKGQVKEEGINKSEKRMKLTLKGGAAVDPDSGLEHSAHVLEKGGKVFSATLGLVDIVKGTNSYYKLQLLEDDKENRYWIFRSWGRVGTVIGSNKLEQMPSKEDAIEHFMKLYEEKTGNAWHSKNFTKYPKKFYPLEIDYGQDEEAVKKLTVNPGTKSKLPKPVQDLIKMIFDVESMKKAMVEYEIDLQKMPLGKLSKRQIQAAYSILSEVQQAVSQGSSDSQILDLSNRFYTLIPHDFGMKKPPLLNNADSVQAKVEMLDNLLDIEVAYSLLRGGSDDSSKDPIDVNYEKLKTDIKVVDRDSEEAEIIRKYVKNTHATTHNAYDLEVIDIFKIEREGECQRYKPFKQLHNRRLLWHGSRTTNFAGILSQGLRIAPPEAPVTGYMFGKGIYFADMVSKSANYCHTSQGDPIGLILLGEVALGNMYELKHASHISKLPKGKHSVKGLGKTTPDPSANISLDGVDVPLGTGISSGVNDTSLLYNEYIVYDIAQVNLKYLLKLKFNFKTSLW
Description: PARP1 biochemical assay was purchased as a kit from Trevigen (cat.#4676-096-K) and used per manufacturers recommendations.

[4] = target: 6×HIS-tankyrase 2 (946-1162) (Homo sapiens (Human), UniProt Q9H2K2); experiment: Tankyrase 2 biochemical assay (AlphaLisa, PARsylation); details: 250 nM NAD; read-out: TNKS2 IC50
Sequence of 6×HIS-tankyrase 2 (946-1162) (Q9H2K2 946-1162): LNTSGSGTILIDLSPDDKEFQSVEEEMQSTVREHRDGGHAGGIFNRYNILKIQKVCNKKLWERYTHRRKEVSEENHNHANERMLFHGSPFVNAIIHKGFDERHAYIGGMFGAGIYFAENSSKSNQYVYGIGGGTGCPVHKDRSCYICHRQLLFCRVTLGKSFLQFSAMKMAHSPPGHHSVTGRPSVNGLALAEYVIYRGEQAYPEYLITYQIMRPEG

Sequence of 6×HIS-tankyrase1 (1091-1325) (O95271 1091-1325): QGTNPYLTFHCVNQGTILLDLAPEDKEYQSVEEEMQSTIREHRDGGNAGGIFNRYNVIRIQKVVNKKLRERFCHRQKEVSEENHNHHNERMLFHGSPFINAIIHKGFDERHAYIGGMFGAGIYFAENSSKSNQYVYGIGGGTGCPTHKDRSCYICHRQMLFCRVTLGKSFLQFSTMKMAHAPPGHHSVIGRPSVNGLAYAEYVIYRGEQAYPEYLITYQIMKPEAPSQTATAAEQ

Structure (SMILES)	pIC50 [1]	pEC50 [2]	pIC50 [3]	pIC50 (PARP2)	pIC50 (PARP1)	pIC50 [4]
O=C(CCCc1nc2ccccc2c(=O)[nH]1)N1CCC(n2c(=O)[nH]c3ncccc32)CC1 [Example 47, 2-(4-oxo-4-(4-(2-oxo-2,3-dihydro-1H-imidazo[4,5-b]pyridin-1-yl)-1-piperidinyl)butyl)-4(3H)-quinazolinone trifluoroacetic acid]	8.40	5.90	6.63	5.80	5.61	8.93
O=C(CCCc1nc2ccccc2c(=O)[nH]1)N1CCC(c2n[nH]c3ccccc23)CC1 [Example 48, 2-(4-(4-(1H-indazol-3-yl)-1-piperidinyl)-4-oxobutyl)-4(3H)-quinazolinone trifluoroacetic acid]	8.29	6.38	6.95	5.87	5.70	9.22
O=C(CCCc1nc2ccccc2c(=O)[nH]1)N1CCC(n2c(=O)sc3ccccc32)CC1 [Example 50, 2-(4-oxo-4-(4-(2-oxo-1,3-benzothiazol-3(2H)-yl)-1-piperidinyl)butyl)-4(3H)-quinazolinone trifluoroacetic acid]	8.19	5.81	6.59	6.13	4.97	8.74
O=C(CCCc1nc2ccccc2c(=O)[nH]1)N1CCC(n2c(=O)[nH]c3cc(F)ccc32)CC1 [Example 51, 2-(4-(4-(5-fluoro-2-oxo-2,3-dihydro-1H-benzimidazol-1-yl)-1-piperidinyl)-4-oxobutyl)-4(3H)-quinazolinone trifluoroacetic acid]	8.39	6.18	6.46	6.26	6.05	9.29
O=C(CCCc1nc2ccccc2c(=O)[nH]1)N1CCC(n2c(=O)[nH]c3cc(C(F)(F)F)ccc32)CC1 [Example 52, 2-(4-oxo-4-(4-(2-oxo-5-(trifluoromethyl)-2,3-dihydro-1H-benzimidazol-1-yl)-1-piperidinyl)butyl)-4(3H)-quinazolinone trifluoroacetic acid]	8.89	7.02	7.60	5.99	5.42	9.71
O=C(CCCc1nc2ccccc2c(=O)[nH]1)N1CCC(n2c(=O)oc3cc(F)ccc32)CC1 [Example 53, 2-(4-(4-(6-fluoro-2-oxo-1,3-benzoxazol-3(2H)-yl)-1-piperidinyl)-4-oxobutyl)-4(3H)-quinazolinone trifluoroacetic acid]	8.50	6.44	7.30	6.00	5.59	9.23
Cn1c(=O)n(C2CCN(C(=O)CCCc3nc4ccccc4c(=O)[nH]3)CC2)c2ccccc21 [Example 54, 2-(4-(4-(3-methyl-2-oxo-2,3-dihydro-1H-benzimidazol-1-yl)-1-piperidinyl)-4-oxobutyl)-4(3H)-quinazolinone]	7.41	5.44	5.95	6.17	5.49	7.77
O=C(CCCc1nc2ccccc2c(=O)[nH]1)N1CCN(c2n[nH]c3ccccc23)CC1 [Example 55, 2-(4-(4-(1H-indazol-3-yl)-1-piperazinyl)-4-oxobutyl)-4(3H)-quinazolinone]	8.75	6.71	7.33	6.55	5.74	9.40
O=C(CCCc1nc2ccccc2c(=O)[nH]1)N[C@H]1CC[C@H](Oc2ccccn2)CC1 [Example 56, 4-(4-oxo-3,4-dihydro-2-quinazolinyl)-N-(trans-4-(2-pyridinyloxyl)cyclohexyl)butanamide]	8.60	6.58	7.13	5.96	5.24	9.14
N#Cc1ccccc1O[C@H]1CC[C@H](NC(=O)CCCc2nc3ccccc3c(=O)[nH]2)CC1 [Example 57, N-(trans-4-(2-cyanophenoxy)cyclohexyl)-4-(4-oxo-3,4-dihydro-2-quinazolinyl)butanamide]	7.51	5.77	6.29	6.04	5.22	7.90
N#Cc1cccc(O[C@H]2CC[C@H](NC(=O)CCCc3nc4ccccc4c(=O)[nH]3)CC2)c1 [Example 58, N-(trans-4-(3-cyanophenoxy)cyclohexyl)-4-(4-oxo-3,4-dihydro-2-quinazolinyl)butanamide]	8.49	6.45	7.00	6.01	5.80	8.90
O=C(CCCc1nc2ccccc2c(=O)[nH]1)N[C@H]1CC[C@H](Oc2cccnc2)CC1 [Example 59, 4-(4-oxo-3,4-dihydro-2-quinazolinyl)-N-(trans-4-(3-pyridinyloxyl)cyclohexyl)butanamide]	7.93	6.02	6.68	6.43	5.72	8.62
N#Cc1cccc2c1[nH]c(=O)n2C1CCN(C(=O)CCCc2nc3ccccc3c(=O)[nH]2)CC1 [Example 61, 2-oxo-1-(1-(4-(4-oxo-3,4-dihydro-2-quinazolinyl)butanoyl)-4-piperidinyl)-2,3-dihydro-1H-benzimidazole-4-carbonitrile]	9.06	6.66	6.52	6.46	6.33	9.69
N#Cc1cc(O[C@H]2CC[C@H](NC(=O)CCCc3nc4ccccc4c(=O)[nH]3)CC2)ccc1Cl [Example 63, N-(trans-4-(4-chloro-3-cyanophenoxy)cyclohexyl)-4-(4-oxo-3,4-dihydro-2-quinazolinyl)butanamide]	8.63	6.57	6.68	6.10	6.23	9.19
O=C(CCCc1nc2ccccc2c(=O)[nH]1)N[C@H]1CC[C@H](Oc2cccc(Cl)c2)CC1 [Example 66, N-(trans-4-(3-chlorophenoxy)cyclohexyl)-4-(4-oxo-3,4-dihydro-2-quinazolinyl)butanamide]	8.51	6.20	6.21	6.00	5.86	8.99
O=C(CCCc1nc2ccccc2c(=O)[nH]1)N1CCC(n2c(=O)[nH]c3c(F)cccc32)CC1 [Example 67, 2-(4-(4-(4-fluoro-2-oxo-2,3-dihydro-1H-benzimidazol-1-yl)-1-piperidinyl)-4-oxobutyl)-4(3H)-quinazolinone]	8.41	6.26	6.01	6.17	5.89	8.77
N#Cc1ccc2c(c1)[nH]c(=O)n2C1CCN(C(=O)CCCc2nc3ccccc3c(=O)[nH]2)CC1 [Example 68, 2-oxo-1-(1-(4-(4-oxo-3,4-dihydro-2-quinazolinyl)butanoyl)-4-piperidinyl)-2,3-dihydro-1H-benzimidazole-5-carbonitrile]	9.11	6.62	6.79	6.64	6.20	9.53
O=C(CCCc1nc2ccccc2c(=O)[nH]1)N1CCN(c2nsc3ccccc23)CC1 [Example 69, 2-(4-(4-(1,2-benzisothiazol-3-yl)-1-piperazinyl)-4-oxobutyl)-4(3H)-quinazolinone]	6.39	6.16	5.59	6.50	5.75	6.35
